Experiments:
[1] = test system: animals with acute PH; assay: Single dose in acute PH due to pulmonary embolism; type: in vivo, pigs; conditions: 5 μg/Kg endovenous, 10 minutes after administration
Text: In 10 2 month old healthy pigs (weighing ≈30 kg) anesthetized, intubated and ventilated with 40% FiO2, while continuously monitoring blood pressure, heart rate (HR), oxygen saturation as well as PAP and repeated measurements of cardiac output (CO) by means of thermodilution using a Swan-Ganz catheter, acute PH was generated by means of pulmonary embolization with a suspension of microspheres (Sephadex G50 coarse; Pharmacia Biotech; Freiburg, Germany) by femoral vein route. The dose necessary for causing an increase of mean PAP≥40 mmHg to remain stable for 10 minutes was administered. At that time the animals were randomized to receive specific β3 agonist BRL37344 (5 μg/Kg) or physiological saline (vehicle).
(§1) Cardiac output was quantified by the thermodilution technique.
(§2) A value of P<0.05 was considered significant.

[2] = test system: post-capillary chronic PH model; assay: Single dose in chronic post-capillary PH
Text: The post-capillary PH model was generated by means of the non-restrictive surgical cerclage of the main pulmonary vein in 4 week old piglets (weighing about 10 kg). This vein drains the blood from both lower lung lobes, forming about 80% of the pulmonary mass. With analgesia and general anesthesia and under cardiac monitoring and orotraqueal intubation, the right external jugular vein and common carotid artery were located by means of surgical dissection. The Swan-Ganz catheter was introduced through the venous access to continuously monitor PAP, pulmonary capillary pressure and cardiac output. The arterial route also served to monitor systemic blood pressure during the surgical intervention. By means of right lateral thoracotomy through the fifth intercostal space, non-restrictive cerclage of the main pulmonary vein was performed by means of placing a 5 mm wide polyester band around the vessel fitting the at-rest diameter of the pulmonary venous confluence right before it enters the left atrium. […] It is therefore a progressive PH model (severity intensifies throughout follow-up). […] At the end of follow-up, the animals were euthanized and their hearts extracted for histological analysis.
(§3) The hemodynamic study was conducted by means of right heart catheterization strictly using the same methodology as in humans. Once PH was generated, the following parameters were quantified basally and after the administration of the β3 agonist, in duplicate: PAP, pulmonary capillary pressure and right atrial pressure. Cardiac output was quantified by the thermodilution technique. Five measurements were taken, and the mean of 3 measurements was considered after excluding the highest and lowest determinations. Left ventricular end-diastolic pressure was determined by means of placement of a pig-tail catheter inside the left ventricle through the femoral artery. Pulmonary vascular resistances were calculated as the difference between mean PAP and left ventricular end-diastolic pressure divided by the cardiac output and expressed in Wood units.
The effect of the drug was evaluated 10 minutes after administration in acute PH and 20 minutes after administration in chronic PH.
The continuous variables are expressed as mean±SD and qualitative variables are expressed as frequency (%). The comparison between the intervention groups with respect to changes in the variables, calculated as the difference between the post-treatment and pre-treatment value (both in acute PH and chronic PH), was performed by means of the Wilcoxon test. The evaluation of the effect of a single dose of β3 agonist on the hemodynamic parameters in chronic PH was performed by means of the Student's T test or Wilcoxon test for paired data, according to the distribution of the variables. A value of P<0.05 was considered significant.

[3] = test system: pre-capillary chronic PH model; assay: Single dose in chronic pre-capillary PH; type: in vivo, Large-White pigs, Sus scrofa
Text: The pre-capillary PH model was generated by means of pulmonary arterial embolization with synthetic microspheres 300 microns in diameter (Sephadex G50 coarse; Pharmacia Biotech; Freiburg, Germany), a variant of a model previously described (Bernd W. Bottiger, MD; Johann Motsch, MD; Joachim Dorsam, MD; UlfMieck, MD; Andre Gries, MD, forg Weimann, MD; and Eike Martin, MD. Inhaled Nitric Oxide Selectively Decreases Pulmonary Artery Pressure and Pulmonary Vascular Resistance Following Acute Massive Pulmonary Microembolism in Piglets. CHEST1996; 110:1041-47).
The protocol was initiated in 3 month old Large-White pigs, Sus scrofa species (weighing ≈40 kg). After general anesthesia and analgesia and under cardiac monitoring and orotracheal intubation, the femoral vein and artery were cannulated by means of percutaneous puncture in the cardiac hemodynamics laboratory. Through the venous access, a Swan-Ganz catheter was placed in one of the main branches of the pulmonary artery (PA), which was connected to a monitor to continuously record PAP and to quantify pulmonary capillary pressure and cardiac output. The arterial route allowed continuously recording systemic blood pressure. Venous access served to administer the microspheres towards the pulmonary arterial circulation. A solution was prepared with 500 mg of microspheres in 200 ml of physiological saline and the amount necessary to reach mean sustained PAP>40 mmHg in about 20 minutes was administered. This method was repeated weekly (3-5 embolizations) until generating chronic PH (mean PAP>25 mmHg at rest). Two-month follow-up was conducted on the animals. […] The histopathological lesions observed in the lung reproduce those shown in arterial PH or chronic thromboembolic PH in humans: arterial intima proliferation with media hypertrophy and perivascular fibrosis, vascular occlusions, and complex lesions such as vascular aneurisms or plexiform lesions.
as §1, §2

[4] = test system: animals with post-capillary chronic PH; assay: Chronic endovenous treatment in post-capillary chronic PH (blind, randomized); conditions: 10 μg/Kg/day for 14 days
Text: The post-capillary PH model was generated by means of the non-restrictive surgical cerclage of the main pulmonary vein in 4 week old piglets (weighing about 10 kg). This vein drains the blood from both lower lung lobes, forming about 80% of the pulmonary mass. With analgesia and general anesthesia and under cardiac monitoring and orotraqueal intubation, the right external jugular vein and common carotid artery were located by means of surgical dissection. The Swan-Ganz catheter was introduced through the venous access to continuously monitor PAP, pulmonary capillary pressure and cardiac output. The arterial route also served to monitor systemic blood pressure during the surgical intervention. By means of right lateral thoracotomy through the fifth intercostal space, non-restrictive cerclage of the main pulmonary vein was performed by means of placing a 5 mm wide polyester band around the vessel fitting the at-rest diameter of the pulmonary venous confluence right before it enters the left atrium. […]
as §3, with “Five measurements were taken, and the mean of 3 measurements was considered after excluding the highest and lowest determinations.” left out
The continuous variables are expressed as mean±SD and qualitative variables are expressed as frequency (%). The comparison between the intervention groups with respect to changes in the variables, calculated as the difference between the post-treatment and pre-treatment value (both in acute PH and chronic PH), was performed by means of the Wilcoxon test. […]

[5] = test system: animals with post-capillary chronic PH; assay: Chronic oral treatment in post-capillary chronic PH (blind, randomized); type: in vivo, pigs; conditions: 50 mg/12 hours orally for 14 days; intermediate analysis (N=4); control group showed an increase of PVRs
Description: as §1
To evaluate the chronic effect of treatment with Mirabegron, a 50 mg tablet was administered orally every 12 hours in all cases. The fixed dose for all the animals was based on doses used in humans for different pathologies (never PH because it has never been tested in this entity), resulting in no adverse effects. The dose used for treating neurogenic bladder is 25 to 50 mg/day, whereas in studies designed to evaluate the effect of this drug in heart failure (see “Beta 3 Agonist Treatment in Heart Failure (Beat-HF) NCT01876433”), the expected initial dose is 25 mg/12 hours, being titrated to a maximum of 150 mg/12 hours. The dose of 50 mg/12 hours intends to be an average dose that can be easily extrapolated to patients with whom an efficacy study could be conducted knowing that the side effect profile is favorable.
Another cohort of animals with post-capillary chronic PH were randomized into chronic therapy for 14 days with Mirabegron (Myrbetrig® 50 mg/12 hours) or placebo. Right heart catheterization was performed pre- and post-treatment.

[6] = 5 μg/Kg endovenous single dose, 20 minutes after administration

C[C@H](Cc1ccc(OCC(=O)O)cc1)NC[C@H](O)c1cccc(Cl)c1 [BRL 37344, [4-[(2R)-2-[[(2R)-2-(3-clorophenyl)-2-hydroxyethyl]amino]propyl]phenoxy]acetic acid]
variation of mean systemic blood pressure ([1]; placebo 1.0±7.4, p=0.31, not significant): −4.6±8.0
change of CO (post- minus pre-treatment) ([1]; placebo −0.20±0.31, p=0.008): 0.62±0.53
change of PVR (post- minus pre-treatment) ([1]; placebo −0.4±1.3, p=0.008): −6.5±2.4
variation of HR ([1]; placebo −3.0±7.1, p=0.84, not significant): −4.4±14.1
change of PAPm (post- minus pre-treatment) ([1]; placebo −3.8±4.2, p=0.008): −13.0±4.5
increase of oxygen saturation [2, 6]: 3.2%
increase of the cardiac output [2, 6]: 18%
reduction of pulmonary vascular resistances [2, 6]: 36%
reduction of systolic pulmonary pressure [2, 6]: 23%
reduction of the mean PAP [2, 6]: 30%
cardiac output after administration ([2]; 5 μg/Kg endovenous, 20 minutes, from 3.29±0.9 before, p=0.07): 3.90 ± 1.5 L/min
pulmonary vascular resistances after administration ([2]; 5 μg/Kg endovenous, 20 minutes, from 10.0±4.3 before, p=0.002): 6.4±3.2 Wood units
mean PAP after administration ([2]; 5 μg/Kg endovenous, 20 minutes, from 37.6±9.8 before, p<0.001): 28.8±9.8 mmHg
systolic pulmonary pressure after administration ([2]; 5 μg/Kg endovenous, 20 minutes, from 50.6±15.5 before, p<0.001): 38.9±9.9 mmHg
heart rate after administration ([2]; 5 μg/Kg endovenous, 20 minutes, from 83.8±21.1 before, p=0.20, no significant change): 87.8±16.8 bpm
systemic blood pressure after administration ([2]; 5 μg/Kg endovenous, 20 minutes, from 85.7±13.9 before, p=0.11, no significant change): 79.9±6.9 mmHg
oxygen saturation after administration ([2]; 5 μg/Kg endovenous, 20 minutes, from 90.88±2.64 before, p=0.001): 93.75±3.01%
changes in heart rate [3, 6]: without significant changes
changes in systemic blood pressure [3, 6]: without significant changes
decrease of the mean PAP [3, 6]: 32%
increase of oxygen saturation [3, 6]: 2%
reduction of systolic PAP [3, 6]: 25%
mean PAP after administration ([3]; 5 μg/Kg endovenous, 20 minutes, from 29.5±2.1 before): 20.0±5.7 mmHg
systolic PAP after administration ([3]; 5 μg/Kg endovenous, 20 minutes, from 37.5±6.4 before): 28.0±8.5 mmHg
change of pulmonary vascular resistances (PVRs) after 14 days ([4]; osmotic pump, jugular vein, placebo +1.3±1.2, p=0.042): −1.2±1.6 WU
change in heart rate after 14 days ([4]; placebo 3.0±28.2, p=0.49, not significant): −8.2±15.1 bpm
change in systemic mean blood pressure after 14 days ([4]; placebo 4.3±7.0, p=0.25, not significant): 2.3±6.9 mmHg

Nc1nc(CC(=O)Nc2ccc(CCNC[C@H](O)c3ccccc3)cc2)cs1 [Mirabegron]
change of PVRs after 14 days [5]: a reduction of PVRs was observed

— patent US10532038B2, “Beta-3 adrenoceptor agonists for the treatment of pulmonary hypertension” (FUNDACIÓN CENTRO NACIONAL DE INVESTIGACIONES …, priority 2012, dated 2020)
